Assay results: patent publication US20020026053A1, “Novel 3-(substituted) -2- indolinones compounds and use thereof as inhibitors of protein kinase activity” (priority 1997, published 2002)

Molecular target: T1, Met receptor (EGFR/Met chimeric cells, EMR) (Homo sapiens, UniProt P08581)
T1 construct: expressed in transfected cells; the other entry of the earlier key: EGFR (P00533, Epidermal growth factor receptor)
Assay: Met Autophosphorylation Assay
Assay type: biochemical
How it was run: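 Transiently transfected EGFR/Met chimeric (EMR) cells were lysed in HNTG with 1 mM PMSF. Met was captured on plates coated with goat anti-rabbit IgG, then rabbit anti-Met (C-28), using 90 μg lysate/100 μl for 60 min at room temperature. Phosphotyrosine was read by ELISA.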

T1 sequence (P08581 with tags, fused parts or gaps): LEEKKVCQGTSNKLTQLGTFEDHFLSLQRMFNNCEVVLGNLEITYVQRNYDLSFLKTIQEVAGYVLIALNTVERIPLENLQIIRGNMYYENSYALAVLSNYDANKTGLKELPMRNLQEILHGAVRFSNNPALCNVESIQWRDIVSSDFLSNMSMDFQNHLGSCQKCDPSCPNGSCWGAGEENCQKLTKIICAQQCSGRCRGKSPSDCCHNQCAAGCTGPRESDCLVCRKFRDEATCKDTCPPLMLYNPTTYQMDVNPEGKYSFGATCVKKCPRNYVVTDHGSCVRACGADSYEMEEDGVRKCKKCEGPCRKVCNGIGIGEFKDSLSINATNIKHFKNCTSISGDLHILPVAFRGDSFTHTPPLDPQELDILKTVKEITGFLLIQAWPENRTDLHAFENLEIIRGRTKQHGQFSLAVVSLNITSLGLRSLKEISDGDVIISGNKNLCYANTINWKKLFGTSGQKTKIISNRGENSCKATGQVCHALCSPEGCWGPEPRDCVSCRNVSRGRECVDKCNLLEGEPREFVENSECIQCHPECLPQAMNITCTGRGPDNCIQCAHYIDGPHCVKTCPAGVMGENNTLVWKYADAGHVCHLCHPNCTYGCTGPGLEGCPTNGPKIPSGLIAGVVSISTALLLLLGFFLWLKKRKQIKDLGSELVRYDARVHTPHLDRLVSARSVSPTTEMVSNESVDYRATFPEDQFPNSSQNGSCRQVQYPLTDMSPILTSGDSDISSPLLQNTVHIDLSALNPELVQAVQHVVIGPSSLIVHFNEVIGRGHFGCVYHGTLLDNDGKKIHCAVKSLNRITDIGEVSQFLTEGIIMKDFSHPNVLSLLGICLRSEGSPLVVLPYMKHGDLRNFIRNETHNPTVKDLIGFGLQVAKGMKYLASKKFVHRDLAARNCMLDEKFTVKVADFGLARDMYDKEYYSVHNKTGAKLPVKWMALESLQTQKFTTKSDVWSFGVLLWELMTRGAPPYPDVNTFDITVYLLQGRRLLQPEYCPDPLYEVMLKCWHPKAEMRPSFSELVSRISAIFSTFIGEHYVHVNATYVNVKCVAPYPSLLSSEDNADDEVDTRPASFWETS

| Structure (SMILES) | Met Kinase % Inhibition (P.130) |
| --- | --- |
| O=C1Nc2ccc(I)cc2C1=Cc1ccc(-c2ccccc2)cc1 [10735/B11] | 69.0% |
| Cc1ccccc1C=C1C(=O)Nc2ccc(Br)c(C)c21 [10735/C02] | 27.7% |
| Cc1c(Br)ccc2c1C(=Cc1ccc(F)c(F)c1)C(=O)N2 [10735/C03] | 66.2% |
| Cc1c(Br)ccc2c1C(=Cc1cc(F)cc(F)c1)C(=O)N2 [10735/C04] | 75.8% |
| Cc1c(Br)ccc2c1C(=Cc1cccc(C(F)(F)F)c1)C(=O)N2 [10735/C05] | 59.4% |
| Cc1c(Br)ccc2c1C(=Cc1cc(C(F)(F)F)cc(C(F)(F)F)c1)C(=O)N2 [10735/C06] | 47.0% |
| Cc1c(Br)ccc2c1C(=Cc1ccccc1C#N)C(=O)N2 [10735/C07] | 49.1% |
| Cc1c(Br)ccc2c1C(=Cc1c(F)cccc1F)C(=O)N2 [10735/C08] | 49.8% |
| Cc1c(Br)ccc2c1C(=Cc1cccc3ccccc13)C(=O)N2 [10735/C09] | 24.1% |
| Cc1c(Br)ccc2c1C(=Cc1ccc(Cl)cc1Cl)C(=O)N2 [10735/C10] | 37.8% |
| Cc1c(Br)ccc2c1C(=Cc1ccc(-c3ccccc3)cc1)C(=O)N2 [10735/C11] | 14.1% |
| CNS(=O)(=O)c1ccc2c(c1)C(=Cc1ccccc1C)C(=O)N2 [10735/D02] | 32.6% |
| CNS(=O)(=O)c1ccc2c(c1)C(=Cc1ccc(F)c(F)c1)C(=O)N2 [10735/D03] | 41.2% |
| CNS(=O)(=O)c1ccc2c(c1)C(=Cc1cc(F)cc(F)c1)C(=O)N2 [10735/D04] | 25.6% |
| CNS(=O)(=O)c1ccc2c(c1)C(=Cc1cccc(C(F)(F)F)c1)C(=O)N2 [10735/D05] | 33.7% |
| CNS(=O)(=O)c1ccc2c(c1)C(=Cc1cc(C(F)(F)F)cc(C(F)(F)F)c1)C(=O)N2 [10735/D06] | 36.9% |
| CNS(=O)(=O)c1ccc2c(c1)C(=Cc1ccccc1C#N)C(=O)N2 [10735/D07] | 33.7% |
| CNS(=O)(=O)c1ccc2c(c1)C(=Cc1c(F)cccc1F)C(=O)N2 [10735/D08] | 25.6% |
| CNS(=O)(=O)c1ccc2c(c1)C(=Cc1cccc3ccccc13)C(=O)N2 [10735/D09] | 23.0% |
| CNS(=O)(=O)c1ccc2c(c1)C(=Cc1ccc(Cl)cc1Cl)C(=O)N2 [10735/D10] | 35.0% |
| CNS(=O)(=O)c1ccc2c(c1)C(=Cc1ccc(-c3ccccc3)cc1)C(=O)N2 [10735/D11] | 18.5% |
| Cc1ccccc1C=C1C(=O)Nc2ccc(S(=O)(=O)Nc3ccc(C(F)(F)F)cc3)cc21 [10735/E02] | 13.2% |
| O=C1Nc2ccc(S(=O)(=O)Nc3ccc(C(F)(F)F)cc3)cc2C1=Cc1ccc(F)c(F)c1 [10735/E03] | 71.8% |

| Structure (SMILES) | Met Kinase % Inhibition (P.130) |
| --- | --- |
| O=C1Nc2ccc(S(=O)(=O)Nc3ccc(C(F)(F)F)cc3)cc2C1=Cc1cc(F)cc(F)c1 [10735/E04] | 85.2% |
| O=C1Nc2ccc(S(=O)(=O)Nc3ccc(C(F)(F)F)cc3)cc2C1=Cc1cccc(C(F)(F)F)c1 [10735/E05] | 74.8% |
| O=C1Nc2ccc(S(=O)(=O)Nc3ccc(C(F)(F)F)cc3)cc2C1=Cc1cc(C(F)(F)F)cc(C(F)(F)F)c1 [10735/E06] | 33.3% |
| N#Cc1ccccc1C=C1C(=O)Nc2ccc(S(=O)(=O)Nc3ccc(C(F)(F)F)cc3)cc21 [10735/E07] | 64.5% |
| O=C1Nc2ccc(S(=O)(=O)Nc3ccc(C(F)(F)F)cc3)cc2C1=Cc1c(F)cccc1F [10735/E08] | 35.7% |
| O=C1Nc2ccc(S(=O)(=O)Nc3ccc(C(F)(F)F)cc3)cc2C1=Cc1cccc2ccccc12 [10735/E09] | 11.3% |
| O=C1Nc2ccc(S(=O)(=O)Nc3ccc(C(F)(F)F)cc3)cc2C1=Cc1ccc(Cl)cc1Cl [10735/E10] | 41.8% |
| O=C1Nc2ccc(S(=O)(=O)Nc3ccc(C(F)(F)F)cc3)cc2C1=Cc1ccc(-c2ccccc2)cc1 [10735/E11] | 7.2% |
| Cc1ccccc1C=C1C(=O)Nc2ccc(S(=O)(=O)N3CCOCC3)cc21 [10735/F02] | 31.2% |
| O=C1Nc2ccc(S(=O)(=O)N3CCOCC3)cc2C1=Cc1ccc(F)c(F)c1 [10735/F03] | 36.1% |
| O=C1Nc2ccc(S(=O)(=O)N3CCOCC3)cc2C1=Cc1cc(F)cc(F)c1 [10735/F04] | 41.6% |
| O=C1Nc2ccc(S(=O)(=O)N3CCOCC3)cc2C1=Cc1cccc(C(F)(F)F)c1 [10735/F05] | 26.4% |
| O=C1Nc2ccc(S(=O)(=O)N3CCOCC3)cc2C1=Cc1cc(C(F)(F)F)cc(C(F)(F)F)c1 [10735/F06] | 39.5% |
| N#Cc1ccccc1C=C1C(=O)Nc2ccc(S(=O)(=O)N3CCOCC3)cc21 [10735/F07] | 39.7% |
| O=C1Nc2ccc(S(=O)(=O)N3CCOCC3)cc2C1=Cc1c(F)cccc1F [10735/F08] | 18.5% |
| O=C1Nc2ccc(S(=O)(=O)N3CCOCC3)cc2C1=Cc1cccc2ccccc12 [10735/F09] | 7.0% |
| O=C1Nc2ccc(S(=O)(=O)N3CCOCC3)cc2C1=Cc1ccc(Cl)cc1Cl [10735/F10] | 13.0% |
| O=C1Nc2ccc(S(=O)(=O)N3CCOCC3)cc2C1=Cc1ccc(-c2ccccc2)cc1 [10735/F11] | 16.6% |
| Cc1ccccc1C=C1C(=O)Nc2ccc(CCCl)cc21 [10735/G02] | 26.0% |
| O=C1Nc2ccc(CCCl)cc2C1=Cc1ccc(F)c(F)c1 [10735/G03] | 24.3% |
| O=C1Nc2ccc(CCCl)cc2C1=Cc1cc(F)cc(F)c1 [10735/G04] | 28.8% |
| O=C1Nc2ccc(CCCl)cc2C1=Cc1cccc(C(F)(F)F)c1 [10735/G05] | 22.2% |
| O=C1Nc2ccc(CCCl)cc2C1=Cc1cc(C(F)(F)F)cc(C(F)(F)F)c1 [10735/G06] | 36.1% |
